# Measurements taken from patent publication US20100203647A1, “Chemical Reporters of Protein Acylation” (THE ROCKEFELLER UNIVERSITY, priority 2008, published 2010).
# Entries after “also recorded” stand apart in the source; their conditions may differ.
# Columns and labels:
# [1] = system: Lck; test: Pulse-chase tandem imaging of palmitate turnover on Lck in Jurkat T cells; format: cell-based, human; conditions: for effect of chemical inhibitor on palmitate turnover on Lck: added during the chase, 20 μM MAFP, 100 μM 2BP; for decay of reporter signal on Lck with excess myristate as the chase additive: over 6 hours
# [2] = system: Jurkat cells; test: Metabolic labeling with inhibitors; conditions: for class of acylated proteins targeted by the reporter: from CHX and NH2OH sensitivity in Jurkat cell lysates
# [3] = target: T1, p300 (Homo sapiens, UniProt Q09472); test: MALDI-TOF analysis of p300-catalyzed acylation of histone H3 peptide in vitro; format: biochemical; conditions: 20 μM analog, MS analysis
# T1 construct: made in house; host or cells: SF9 insect cells, baculovirus
# Experimental: Cells were lysed in lysis buffer (20 mM Tris, pH 7.5, 500 mM NaCl, 4 mM MgCl2, 0.4 mM EDTA, 20% glycerol, 2 mM DTT, and supplemented with protease inhibitors). Clarified cell lysates were diluted to 300 mM NaCl, and NP-40 was added to 0.1% final concentration. Flag M2 agarose resin (Sigma) was added to the lysate and incubated for 4 hours at 4° C. […] Protein concentration and purity were estimated by comparison to BSA standards on SDS gels stained with Gelcode Blue stain (Pierce).
# [4] = system: Jurkat T cells; test: Metabolic labeling of Jurkat T cells with alkynyl-acetate analogs, CuAAC with az-Rho, in-gel fluorescence scanning; conditions: metabolically-labeled Jurkat T cells
# [5] = system: Jurkat T cells; test: Proteomic analysis and modification site mapping of alkynyl-acetate analog-labeled proteins; format: cell-based, human; conditions: for qualitative comparison among alkynyl-acetate analogs as chemical reporter for protein acetylation: proteomics data and in vitro p300-acylation studies
# [6] = system: M. smegmatis; test: Labeling of acylated proteins in bacterial cells with alkynyl-chemical reporters; format: cell-based
# [7] = system: acetylated proteins such as histones; test: Metabolic labeling of acetylated proteins with very short chain alkynyl-chemical reporters, in-gel fluorescence; format: cell-based, human
# [8] = In vivo labeling of acylated proteins after intraperitoneal injection of alkynyl-chemical reporters; conditions: mice, one hour, splenocytes, liver
# Experimental: (§1) Livers were harvested and incubated with Liberase 3 Blendzyme™ (Roche, Mannheim, Germany) at 37° C. for 30 minutes+ and homogenized prior to filtration with 0.4 μm cell strainers. Splenocytes were prepared by manual disruption of spleens using forceps. Liver and splenocyte preparations were subjected to red blood cell lysis using ACK lysis buffer.
# as §1, with “Livers and kidney” for “Livers”, “Blendzyme” for “Blendzyme™”, “minutes” for “minutes+”, “Liver, kidney” for “Liver”
# [9] = system: Lck and LAT; test: Hydroxylamine cleavage of S-acylated proteins (in-gel), immunoprecipitated Lck and LAT; format: cell-based, human; conditions: 1 M NH2OH pH 7.4; alk-16 on Lck and LAT, alk-12 on Lck
# Experimental: (§2) Cell lysates were collected after centrifuging at 1,000 g for 5 minutes at 4° C. to remove cell debris. Protein concentration was determined by the BCA assay. Typical lysate protein concentration obtained: 6-8 mg/mL. LAT, Lck and Ras proteins were immunoprecipitated from 200 μg Jurkat cell lysate using the following antibodies at recommended concentrations: mouse anti-Lck (p56lck) monoclonal (Clone 3A5, Thermo Scientific, Waltham, Mass., USA), rat anti-v-H-ras (Ab-1) monoclonal (Y13-259 agarose conjugate, Calbiochem, San Diego, Calif., USA), and rabbit anti-LAT polyclonal (Millipore, Billerica, Mass., USA). A rabbit anti-Fyn polyclonal (Millipore, Billerica, Mass., USA) was used to immunoprecipitate wild type and mutant Fyn proteins from transfected and metabolically labeled HeLa cells. 25 μL of packed protein A-agarose beads (Roche, Mannheim, Germany) was used per sample.
# The gel was finally washed with deionized water (2×5 minutes) and scanned for the post-hydroxylamine treatment fluorescence.
# [10] = target: T2, Fyn (Homo sapiens, UniProt P06241); test: Alkynyl-fatty acid labeling of wild type, G2A and C3,6S Fyn overexpressed in HeLa cells, immunoprecipitation; format: cell-based; conditions: 20 μM reporter
# T2 construct: expressed in transfected cells; host or cells: HeLa cells
# Experimental: (§3) HeLa cells were grown in 10 cm dishes to approximately 90% confluence in DMEM, supplemented with 10% FBS, and transfected with wildtype, G2A or C3,6S Fyn constructs using Lipofectamine 2000 (Invitrogen). The human Fyn constructs, wild type and mutant Fyn cDNAs cloned into eukaryotic expression vector pCMV5, were gifts from Dr. Marilyn Resh, Memorial Sloan-Kettering Cancer Center. The following day, cells were metabolically labeled with alkynyl-fatty acid analogs as described above.
# as §2
# [11] = target: T3, Fyn (Homo sapiens, UniProt P06241, G2A); test: as above; format: cell-based; conditions: 20 μM reporter
# T3 construct: expressed in transfected cells; host or cells: HeLa cells
# Experimental: as §3, §2
# [12] = target: T4, Fyn (Homo sapiens, UniProt P06241, C3S/C6S); test: as above; format: cell-based; conditions: 20 μM reporter
# T4 construct: expressed in transfected cells; host or cells: HeLa cells
# Experimental: as §3, §2
# [13] = Absorbance and fluorescence studies of clickable CyFur dyes; format: physicochemical; conditions: for εmax^b (M^−1cm^−1): in MeOH, at 470 nm for az-CyFur-1, az-CyFur-2 and at 580 nm for alk-CyFur, averaged over three independent experiments; for ΦF^c: quantum yield referenced against cresyl violet, alk-CyFur excited at 580 nm, az-CyFur-1 and az-CyFur-2 at 470 nm; for λmax^a (nm) (first column) / λmax^a (nm) (second column): spectra obtained in DMSO
# Experimental: Absorbance and fluorescence studies. Absorption spectra and fluorescence data were collected on SpectraMax M2 multi-detection reader (Molecular Devices). The spectra in solution were obtained at 25° C. using a quartz cuvette with a path length of 1 cm. Fluorescence quantum yields (ΦF) of CyFur dyes were determined against cresyl violet (ΦF=0.54 in methanol).
# [14] = system: Jurkat T cell lysates; test: Streptavidin affinity enrichment and Na2S2O4 elution of azido-chemical reporter labeled Jurkat T cell lysates reacted with alk-diazo-biotin; format: cell-based, human; conditions: Coomassie staining of polypeptides eluted from streptavidin beads
# [15] = system: metabolic incorporation of chemical reporters; test: Effect of inhibitors/additives on metabolic incorporation of alkynyl-chemical reporters; format: cell-based
# [16] = system: Jurkat cells; test: Competition of metabolic labeling with naturally occurring fatty acids; conditions: 2 hours, myristic acid 0, 10 or 100 μM, palmitic acid 0, 100 or 200 μM
# T2 sequence (P06241 2-537): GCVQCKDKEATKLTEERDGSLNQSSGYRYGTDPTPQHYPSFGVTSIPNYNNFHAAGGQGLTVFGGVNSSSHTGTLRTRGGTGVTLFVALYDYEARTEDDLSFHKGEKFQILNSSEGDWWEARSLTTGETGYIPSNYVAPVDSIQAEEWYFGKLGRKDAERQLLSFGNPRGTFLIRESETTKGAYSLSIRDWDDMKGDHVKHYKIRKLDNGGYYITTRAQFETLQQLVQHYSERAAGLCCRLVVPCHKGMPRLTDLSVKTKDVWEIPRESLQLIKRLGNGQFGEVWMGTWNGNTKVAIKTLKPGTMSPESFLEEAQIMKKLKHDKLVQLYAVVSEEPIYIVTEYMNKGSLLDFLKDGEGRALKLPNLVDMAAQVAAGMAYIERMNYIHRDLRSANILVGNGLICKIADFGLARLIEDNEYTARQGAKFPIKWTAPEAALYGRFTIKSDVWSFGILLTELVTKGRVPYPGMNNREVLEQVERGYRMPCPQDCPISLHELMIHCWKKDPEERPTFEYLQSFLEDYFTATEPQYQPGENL
# T3 sequence (P06241 2-537 G2A): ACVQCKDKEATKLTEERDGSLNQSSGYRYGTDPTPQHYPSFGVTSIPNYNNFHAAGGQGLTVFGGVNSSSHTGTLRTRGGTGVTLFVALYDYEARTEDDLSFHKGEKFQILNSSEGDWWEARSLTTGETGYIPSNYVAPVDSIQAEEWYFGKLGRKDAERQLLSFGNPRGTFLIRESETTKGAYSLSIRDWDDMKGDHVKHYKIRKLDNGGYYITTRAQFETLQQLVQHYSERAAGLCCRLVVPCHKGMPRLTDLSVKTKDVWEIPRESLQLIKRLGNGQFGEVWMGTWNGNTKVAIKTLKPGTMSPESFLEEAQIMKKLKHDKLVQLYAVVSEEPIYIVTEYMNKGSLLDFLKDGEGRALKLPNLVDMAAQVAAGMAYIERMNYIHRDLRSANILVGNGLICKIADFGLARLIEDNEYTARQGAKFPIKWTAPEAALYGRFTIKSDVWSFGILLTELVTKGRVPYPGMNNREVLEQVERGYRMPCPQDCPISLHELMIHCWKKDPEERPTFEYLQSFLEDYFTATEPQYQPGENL
# T1 sequence (Q09472 whole entry): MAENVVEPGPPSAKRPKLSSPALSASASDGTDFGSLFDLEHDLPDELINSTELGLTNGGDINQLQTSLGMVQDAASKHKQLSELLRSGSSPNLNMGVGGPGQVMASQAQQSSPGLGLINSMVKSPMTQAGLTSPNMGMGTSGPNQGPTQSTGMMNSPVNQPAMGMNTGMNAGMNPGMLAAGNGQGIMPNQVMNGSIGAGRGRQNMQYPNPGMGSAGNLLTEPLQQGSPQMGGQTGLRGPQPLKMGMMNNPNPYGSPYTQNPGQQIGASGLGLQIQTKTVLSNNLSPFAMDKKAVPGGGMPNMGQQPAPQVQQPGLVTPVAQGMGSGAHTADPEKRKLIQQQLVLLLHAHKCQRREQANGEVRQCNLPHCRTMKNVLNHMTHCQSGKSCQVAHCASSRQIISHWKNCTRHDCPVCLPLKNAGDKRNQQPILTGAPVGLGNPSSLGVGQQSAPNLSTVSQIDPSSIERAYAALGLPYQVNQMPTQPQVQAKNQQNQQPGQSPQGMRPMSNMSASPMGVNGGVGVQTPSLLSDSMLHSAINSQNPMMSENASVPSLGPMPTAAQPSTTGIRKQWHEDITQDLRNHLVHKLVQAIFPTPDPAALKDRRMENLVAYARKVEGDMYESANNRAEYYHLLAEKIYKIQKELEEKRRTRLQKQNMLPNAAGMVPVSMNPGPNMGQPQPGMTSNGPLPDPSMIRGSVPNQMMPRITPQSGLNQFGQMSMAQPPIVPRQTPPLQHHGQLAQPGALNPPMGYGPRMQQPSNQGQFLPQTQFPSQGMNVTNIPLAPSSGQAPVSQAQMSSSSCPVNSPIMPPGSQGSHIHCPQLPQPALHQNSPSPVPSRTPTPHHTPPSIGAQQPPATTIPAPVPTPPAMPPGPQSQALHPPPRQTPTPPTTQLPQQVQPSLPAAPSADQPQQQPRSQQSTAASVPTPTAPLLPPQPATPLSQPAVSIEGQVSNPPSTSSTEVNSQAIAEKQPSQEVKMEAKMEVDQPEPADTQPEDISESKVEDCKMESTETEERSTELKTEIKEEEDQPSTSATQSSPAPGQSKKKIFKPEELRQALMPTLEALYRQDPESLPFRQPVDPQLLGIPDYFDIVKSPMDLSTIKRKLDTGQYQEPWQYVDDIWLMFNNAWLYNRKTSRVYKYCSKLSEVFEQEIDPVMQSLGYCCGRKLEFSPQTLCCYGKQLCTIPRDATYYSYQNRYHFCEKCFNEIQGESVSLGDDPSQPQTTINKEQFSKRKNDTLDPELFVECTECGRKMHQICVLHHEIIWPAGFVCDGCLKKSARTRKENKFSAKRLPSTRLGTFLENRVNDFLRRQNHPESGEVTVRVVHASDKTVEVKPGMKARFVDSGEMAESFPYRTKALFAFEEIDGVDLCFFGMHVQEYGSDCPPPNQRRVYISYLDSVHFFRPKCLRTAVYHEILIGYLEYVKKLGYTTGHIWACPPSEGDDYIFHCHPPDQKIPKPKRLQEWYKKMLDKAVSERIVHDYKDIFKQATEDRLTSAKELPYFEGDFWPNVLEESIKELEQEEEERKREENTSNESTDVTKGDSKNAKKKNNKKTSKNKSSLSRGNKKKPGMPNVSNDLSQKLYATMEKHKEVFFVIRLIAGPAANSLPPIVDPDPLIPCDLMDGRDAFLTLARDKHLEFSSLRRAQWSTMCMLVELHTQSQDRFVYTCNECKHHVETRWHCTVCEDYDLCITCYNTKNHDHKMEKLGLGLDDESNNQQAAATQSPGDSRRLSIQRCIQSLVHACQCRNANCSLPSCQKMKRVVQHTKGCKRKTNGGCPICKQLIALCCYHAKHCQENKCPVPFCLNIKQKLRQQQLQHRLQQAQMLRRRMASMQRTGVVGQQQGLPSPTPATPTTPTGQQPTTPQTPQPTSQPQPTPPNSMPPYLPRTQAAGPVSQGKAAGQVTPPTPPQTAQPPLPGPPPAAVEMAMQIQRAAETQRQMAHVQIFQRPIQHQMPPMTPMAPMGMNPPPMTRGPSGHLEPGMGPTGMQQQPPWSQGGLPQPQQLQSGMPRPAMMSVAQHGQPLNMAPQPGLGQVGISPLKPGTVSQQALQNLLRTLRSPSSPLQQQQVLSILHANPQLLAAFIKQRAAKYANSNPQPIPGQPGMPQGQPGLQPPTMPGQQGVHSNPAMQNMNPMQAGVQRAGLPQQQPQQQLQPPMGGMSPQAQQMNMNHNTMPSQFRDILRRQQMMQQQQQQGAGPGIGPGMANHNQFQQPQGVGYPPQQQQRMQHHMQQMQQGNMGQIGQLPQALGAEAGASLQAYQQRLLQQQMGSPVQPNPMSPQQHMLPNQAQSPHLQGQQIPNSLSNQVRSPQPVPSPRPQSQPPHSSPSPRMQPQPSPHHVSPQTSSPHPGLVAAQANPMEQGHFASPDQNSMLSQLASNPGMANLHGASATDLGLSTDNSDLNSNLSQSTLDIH
# T4 sequence (P06241 2-537 C3S/C6S): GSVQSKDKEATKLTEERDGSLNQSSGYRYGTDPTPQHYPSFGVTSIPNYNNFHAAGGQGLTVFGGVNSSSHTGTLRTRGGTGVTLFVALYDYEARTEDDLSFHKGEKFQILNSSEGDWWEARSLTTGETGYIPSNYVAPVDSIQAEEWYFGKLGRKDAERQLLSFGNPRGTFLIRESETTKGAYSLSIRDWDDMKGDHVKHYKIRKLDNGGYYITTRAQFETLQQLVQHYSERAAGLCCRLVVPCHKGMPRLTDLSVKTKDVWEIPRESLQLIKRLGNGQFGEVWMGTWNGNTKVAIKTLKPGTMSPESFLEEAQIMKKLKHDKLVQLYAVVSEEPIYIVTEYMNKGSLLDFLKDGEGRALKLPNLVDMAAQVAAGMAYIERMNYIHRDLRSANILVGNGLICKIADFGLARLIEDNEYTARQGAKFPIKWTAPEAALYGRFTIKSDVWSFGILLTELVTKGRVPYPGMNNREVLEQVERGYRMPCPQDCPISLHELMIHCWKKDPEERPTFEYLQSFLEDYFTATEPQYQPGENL
structure (smiles),measurement,setting,value
"CCCCCCCCCCCCCCC(Br)C(=O)O (stereo not drawn) [2-BP, 2-bromopalmitate, reference compound]",effect of chemical inhibitor on palmitate turnover on Lck,[1],decreased Lck depalmitoylation rate
same,"effect of inhibitor on alkynyl-fatty acid protein labeling (alk-12, alk-14, alk-16, 20 μM)","[2]; Jurkat cells, CHX 10 μM, HMA 1 mM, 2-BP 50 μM, 30 minutes pre-incubation","reduced protein labeling with alk-12, alk-14 and alk-16"
"C#CCCSCCNC(=O)CCNC(=O)[C@H](O)C(C)(C)COP(=O)(O)OP(=O)(O)OC[C@H]1O[C@@H](n2cnc3c(N)ncnc32)[C@H](O)[C@@H]1OP(=O)(O)O [Analog 1, 3-butynyl-CoA]",utilization as acyl-CoA donor for p300-catalyzed acylation of histone H3 peptide,[3],does not appear to be utilized efficiently by p300
same,utilization as acyl-CoA donor for p300-catalyzed acylation of histone H3 peptide,[3]; listed as 3-butynyl-CoA,not efficiently utilized by p300 in vitro
"C#CCC(=O)[O-].[Na+] [Analog 4, sodium 3-butynoate]","labeling of known lysine-acetylated proteins (enriched core histones, immunoprecipitated histone H3)",[4],specifically labeled
"C#CCCC(=O)[O-].[Na+] [Analog 5, sodium 4-pentynoate]",sites of metabolic incorporation (MS/MS of enriched peptides),[5]; Jurkat T cell lysates,"metabolically incorporated into known sites of lysine acetylation on histone H2B, H3 and H4"
same,labeled proteins also identified by anti-acetyl-Lys proteomic studies,[5]; Jurkat T cells,86%
same,number of labeled proteins identified,"[5]; Jurkat T cells, three independent experiments",approximately 194
same,qualitative comparison among alkynyl-acetate analogs as chemical reporter for protein acetylation,[5],optimal chemical reporter for detecting protein acetylation
same,"labeling of known lysine-acetylated proteins (enriched core histones, immunoprecipitated histone H3)",[4],specifically labeled
"C#CCCCC(=O)[O-].[Na+] [Analog 6, sodium 5-hexynoate]",qualitative comparison among alkynyl-acetate analogs as chemical reporter for protein acetylation,[5],may also target cellular fatty-acylated proteins
same,"labeling of known lysine-acetylated proteins (enriched core histones, immunoprecipitated histone H3)",[4],specifically labeled
"O=S(=O)(F)Cc1ccccc1 [PMSF, phenylmethylsulfonyl fluoride, reference compound]",effect of chemical inhibitor on palmitate turnover on Lck,[1],no apparent effect on the initial rate of palmitate removal
"C#CCC(=O)O [alk-2, buta-3-ynoic acid]",labeling of proteins in bacterial cells,[6],labeled distinct proteins
same,labeling of acetylated proteins,[7],found to label acetylated proteins such as histones
"C#CCCCC(=O)O [alk-4, hexa-5-ynoic acid]",labeling of proteins in bacterial cells,[6],labeled distinct proteins
same,labeling of acetylated proteins,[7],found to label acetylated proteins such as histones
same,"relative efficiency of labeling acetylated proteins among alk-2, alk-3, alk-4",[7],most efficient labeling of acetylated proteins; also recorded: more efficient
"C#CCCCCCCCCCCCC(=O)O [alk-12, Tetradec-13-ynoic acid]",labeling of proteins in bacterial cells,[6],labeled distinct proteins
same,class of acylated proteins targeted by the reporter,[2],cotranslationally targets N-myristoylated proteins
same,profile of acylated proteins after in vivo labeling,[8],discrete profile of acylated proteins from splenocytes similar to ex vivo labeling
same,effect of in-gel NH2OH treatment on fluorescent signal of reporter-labeled protein,[9],did not alter
same,fatty-acylation of wild-type Fyn,[10],readily detected
same,labeling of N-myristoylation G2A-mutant Fyn,[11],significantly reduced
same,"labeling of dual S-palmitoylation-deficient C3,6S mutant Fyn",[12],efficiently labeled
"C#CCCCCCCCCCCCCCC(=O)O [alk-14, Hexadec-15-ynoic acid]",class of acylated proteins targeted by the reporter,[2],appears to represent a combination of alk-12 and alk-16 labeling
"C#CCCCCCCCCCCCCCCCC(=O)O [alk-16, Octadec-17-ynoic acid]",labeling of proteins in bacterial cells,[6],labeled distinct proteins
same,decay of reporter signal on Lck with excess myristate as the chase additive,[1],No significant decay
same,class of acylated proteins targeted by the reporter,[2],preferentially labels S-acylated proteins
same,profile of acylated proteins after in vivo labeling,[8],did not reveal discrete profiles of acylated proteins in splenocytes or liver
same,effect of in-gel NH2OH treatment on fluorescent signal of reporter-labeled protein,[9],reduced the fluorescent signal
same,fatty-acylation of wild-type Fyn,[10],readily detected
same,labeling of N-myristoylation G2A-mutant Fyn,[11],undetectable
"C#CCCNc1ccc(/C=C/C2=C(C#N)C(=C(C#N)C#N)OC2(C)C)cc1 [alk-CyFur, (E)-2-(4-(4-(but-3-ynylamino)styryl)-3-cyano-5,5-dimethylfuran-2(5H)-ylidene)malononitrile]",absorption (abs) maxima,[13],580 nm
same,emission (em) maxima,[13],640 nm
same,εmax^b (M^−1cm^−1),[13],"33,933 M^−1cm^−1"
same,ΦF^c,[13],0.0147
same,λmax^a (nm) (first column),[13],580 nm
same,λmax^a (nm) (second column),[13],640 nm
"[N-]=[N+]=NCCCCCCCCCCCC(=O)O [az-12, 12-azido-dodecanoic acid]",decay of reporter signal on Lck with excess myristate as the chase additive,[1],No significant decay
same,proteins recovered from labeled cell lysates compared to control (-),[14],significantly greater amounts of proteins recovered
"[N-]=[N+]=NCCCCCCCCCCCCCCC(=O)O [az-15, 15-azido-pentadecanoic acid]",proteins recovered from labeled cell lysates compared to control (-),[14],significantly greater amounts of proteins recovered
CC1(C)OC(=C(C#N)C#N)C(C#N)=C1/C=C/c1ccc(NC(=O)OCCN=[N+]=[N-])cc1 [az-CyFur-1],absorption (abs) maxima,[13],470 nm
same,emission (em) maxima,[13],580 nm
same,εmax^b (M^−1cm^−1),[13],"20,533 M^−1cm^−1"
same,ΦF^c,[13],0.0067
same,λmax^a (nm) (first column),[13],470 nm
same,λmax^a (nm) (second column),[13],580 nm
CCCC(=O)O [butyric acid],effect on labeling of acetylated proteins with alk-4,[15],inhibited
CCCCCCCCCCCCCC(=O)O [myristic acid],"competition of alkynyl-fatty acid protein labeling (alk-12, alk-14, alk-16, 10 μM)",[16],alk-12 protein labeling is selectively blocked
CCCCCCCCCCCCCCCC(=O)O [palmitic acid],"competition of alkynyl-fatty acid protein labeling (alk-12, alk-14, alk-16, 10 μM)",[16],alk-14 and alk-16 protein labeling is most effectively reduced
